According to US11406655B2, “Once-daily treatment of pulmonary fibrosis” (Galecto Biotech AB, priority 2015, dated 2022):

Legend:
[1] = First in Human single ascending dose phase I study: safety and tolerability; type: in vivo
Procedure: (§1) This study was a randomized, double-blind, single center, placebo-controlled, single ascending dose (SAD), phase I study to assess the safety, tolerability, PK (pharmacokinetics) and PD (pharmacodynamics) of the compound of formula I in 36 healthy male volunteers (HV's). 6 dose cohorts of 6 subjects were evaluated using a 4:2 ratio (active:placebo). The compound of formula I was delivered to the lungs of HV's using the RS01 Monodose Dry Powder Inhaler (Plastiape) at the following 6 doses: 0.15 mg, 1.5 mg, 3 mg, 10 mg, 20 mg and 50 mg. The 0.15 mg, 1.5 mg and 3 mg dose was a 3% w/w lactose blend, whereas the 10 mg, 20 mg and 50 mg dose was formulated as neat material. The specific capsule filling weights were 5 mg for the 0.15 mg dose, 50 mg for the 1.5 mg dose, 5 mg for the 10 mg dose and 50 mg for the 50 mg dose. HV's were housed overnight and vital signs, EKG, physical exam, urinalysis and laboratory bloods followed for 14 days. PK blood sampling was taken prior to dosing and then at intervals up to 48 hrs post-dose. Plasma samples for drug concentration measurements were analyzed by the Bioanalytical Unit at Simbec (UK). PK variables were determined using the non-compartmental analysis option in the software WinNONLIN 6.3 from Certara based in Princeton, N.J. 08540 (www.certara.com).

[2] = First in Human single ascending dose phase I study: plasma pharmacokinetics after inhalation; type: in vivo
Procedure: as §1

[3] = GLP toxicokinetic studies, murine intravenous dosing; type: in vivo
[4] = Radioisotope studies of lung deposition in mice; type: in vivo
[5] = Particle size (MMAD) of the dry powder used in the study; type: physicochemical; settings: dry powder of the study in the Experimental section
Procedure: When the compound of formula (I) is formulated as a dry powder it may be present in a suitable particle size selected from a mean mass aerodynamic diameter (MMAD) between 0.1 and 20 μm, such as a MMAD between 0.5 and 10 μm, such as between 1 and 5 μm, typically between 2 and 3 μm. In the study described in the Experimental section below the MMAD was measured to 2.5 μm.

Galectin-3 = Galectin-3 (Homo sapiens, UniProt P17931); settings: 3 mg inhaled dose; from Cmax, mouse lung/circulation ratio and ex-vivo data in human derived macrophages
Chain of Galectin-3 (P17931 whole entry): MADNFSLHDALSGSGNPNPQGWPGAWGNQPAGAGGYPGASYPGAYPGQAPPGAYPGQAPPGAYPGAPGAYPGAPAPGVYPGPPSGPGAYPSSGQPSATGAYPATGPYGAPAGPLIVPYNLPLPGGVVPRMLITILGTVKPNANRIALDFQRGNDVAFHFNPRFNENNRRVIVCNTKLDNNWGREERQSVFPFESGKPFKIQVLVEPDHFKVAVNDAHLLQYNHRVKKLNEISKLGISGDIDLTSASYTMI

SMILES: OC[C@H]1O[C@@H](S[C@@H]2O[C@H](CO)[C@H](O)[C@H](n3cc(-c4cccc(F)c4)nn3)[C@H]2O)[C@H](O)[C@@H](n2cc(-c3cccc(F)c3)nn2)[C@H]1O [compound of formula I, bis (3-deoxy-3-(3-fluorophenyl-1H-1,2,3-triazol-1-yl)-β-D-galactopyranosyl)-sulfane]
- tolerability ([1]; healthy male volunteers, single inhaled dose, all 6 doses (0.15 mg to 50 mg), RS01 dry powder inhaler): extremely well tolerated
- adverse events (severity) ([1]; healthy male volunteers, headache, cough and dose-related parageusia (neat blend only), self-limiting): only mild in nature
- changes from baseline in EKG, vital signs, bloods and urinalysis ([1]; up to 2 weeks post-dose): no significant changes from baseline
- dose dependence of drug concentrations based on Cmax and AUC ([2]; inhaled single ascending doses 0.15-50 mg): exhibited dose proportionality
- Tmax ([2]; male, human, inhaled or intranasal, inhaled single dose, independent of dose): 0.8 to 3 h
- half-life ([2]; male, human, inhaled or intranasal, inhaled single dose, read-out: t½ (converted)): 12 h
- fraction of compound found in the feces [3]: ~90%
- concentration in the lung relative to the circulation [4]: fifty times greater
- mean mass aerodynamic diameter (MMAD) [5]: 2.5 μm
- local concentration in the lung in man in excess of that required to suppress Galectin-3 in lung target cells (Galectin-3): 2 fold
